Experimental data from paper PMC11154717, “Evaluation of Novel Spiro-pyrrolopyridazine Derivatives as Anticancer Compounds: In Vitro Selective Cytotoxicity, Induction of Apoptosis, EGFR Inhibitory Activity, and Molecular Docking Analysis” (ACS Omega, 2024).
Where two headings read alike, the source gives them in different places.

What was measured:
[1] = tested on: nontumorigenic HEK-293 cells; experiment: XTT cell viability assay, HEK-293; assay type: cell-based, human; settings: Homo sapiens, HEK293, 72 h
Description: (§1) Human breast cancer (MCF-7), human lung cancer (H69AR), and human prostate cancer (PC-3) human nontumorigenic HEK-293 cells were obtained from the Health Protection Agency (UK) and Interlab Cell Line Collection (ICLC, Italy). Cells were maintained in RPMI medium (Sigma) containing 10% heat-inactivated fetal bovine serum, 1% penicillin, and 1% L-glutamine in a 37° humidified CO2 incubator.
(§2) XTT (2,3-bis(2-methoxy-4-nitro-5-sulfophenyl)-2H-tetrazolium-5-carboxanilide) cell viability test was used to determine the cytotoxic activities of SPPs, which were dissolved in dimethyl sulfoxide (DMSO). Cells were seeded in 96-well plates at a density of 10^4/well and treated with increasing concentrations of SPP (1–250 μM) for 24, 48, and 72 h. After the incubation period, 100 μL of XTT was added to all experimental wells, and 96-well plates were incubated at 37 °C for 4 h. After the color change was observed, the absorbance values of the wells were recorded at 570 nm in the microplate reader (Tecan). The IC50 values for all synthesized compounds, representing the concentration needed to inhibit 50% of cancer cell proliferation, were determined using Biosoft CalcuSyn 2.1 software.[13] The following formula was used to calculate selectivity indexes (SIs), which represent the cytotoxic selectivity of SPPs against cancer cells and normal cells (HEK-293): […]

[2] = tested on: MCF-7 breast cancer cells; experiment: XTT cell viability assay, MCF-7; assay type: cell-based, human
Description: as §1, §2

[3] = tested on: H69AR lung cancer cells; experiment: XTT cell viability assay, H69AR; assay type: cell-based, human
Description: as §1, §2

[4] = tested on: PC-3 prostate cancer cells; experiment: XTT cell viability assay, PC-3; assay type: cell-based, human
Description: as §1, §2

[5] = tested on: MCF-7 breast cancer cells; experiment: Annexin V/PI flow cytometric detection of apoptosis, MCF-7; assay type: cell-based, human; settings: MCF-7, treated at IC50, 72 h
From the text: (§3) During apoptosis, PS translocates from the inner to outer regions of the plasma membrane, making it a valuable marker for apoptosis identification. Annexin V specifically attaches to PS present on the surface of apoptotic cells. To differentiate between apoptotic and viable cells with intact membranes, a secondary dye such as […] (PI) is employed. By assessing fluorescence patterns, viable cells (annexin V- and PI-) and apoptotic cells (annexin V+ and PI+) can be distinguished, providing insights into their respective percentages. We used FITC Annexin V Apoptosis Detection Kit I (BD Pharmingen).[15] […] Subsequently, cells were washed with cold PBS, resuspended in […] of 1× Binding Buffer, and stained with 5 μL of Annexin V FITC and 5 μL of PI. After vortexing, the solution was incubated at room temperature (25 °C) for 15 min in the dark. At the end of the incubation, 400 μL of 1× Binding Buffer was added to each sample, and apoptosis was assessed using flow cytometry (BD Accuri C6 Flow Cytometer).

[6] = tested on: H69AR lung cancer cells; experiment: Annexin V/PI flow cytometric detection of apoptosis, H69AR; assay type: cell-based, human; settings: treated at IC50, 72 h
From the text: as §3

[7] = tested on: PC-3 prostate cancer cells; experiment: Annexin V/PI flow cytometric detection of apoptosis, PC-3; assay type: cell-based, human; settings: PC-3, treated at IC50, 72 h
From the text: as §3

[8] = tested on: Bcl-2; experiment: Western blot, Bcl-2 protein level; assay type: cell-based, human
Description: (§4) For the extraction of total proteins, the M-PER Mammalian Protein Extraction Reagent from Thermo Fisher was utilized. Specifically, cells were treated with 250 μL of the extraction reagent and incubated at room temperature for 10 min with gentle shaking at 300 rpm. After this step, the cell suspension underwent centrifugation at 14,000g for 10 min, and the resulting supernatant was collected. Determination of the protein concentration was carried out using the Bradford method. Following this, protein separation was accomplished through SDS polyacrylamide gel electrophoresis, followed by transfer to nitrocellulose membranes. Post transfer, the membranes underwent blocking with 5% nonfat dry milk for 1 h and were subjected to three washes with Tris-buffered saline (TBS). Incubation with primary antibodies (Bcl-2: Anti-Bcl-2 antibody [ab196495, Abcam]; Bax: Anti-Bax antibody [ab216494, Abcam]; cytochrome c: Anticytochrome c antibody [ab4051]; EGFR: Anti-EGFR antibody [ab32077]) occurred overnight at 4 °C. β-Actin served as the loading control. After the washing steps, the membranes were exposed to secondary antibodies for 1 h at room temperature (1:1000 dilution). Visualization of protein bands was performed using the Kodak Gel Logic 1500 imaging system, and quantification was carried out using ImageJ software.[16]

[9] = tested on: Bax; experiment: Western blot, Bax protein level; assay type: cell-based, human
Description: as §4

[10] = tested on: cytochrome c; experiment: Western blot, cytochrome c protein level; assay type: cell-based, human
Description: as §4

[11] = target: EGFR (Homo sapiens, UniProt P00533); experiment: EGFR kinase inhibitory assay (HTRF); assay type: biochemical; settings: read-out: EGFR kinase inhibition IC50
Description: The inhibitory effects of the target compounds on various EGFR kinases were evaluated through a well-established homogeneous time-resolved fluorescence (HTRF) method-based assay, utilizing the HTRF KinEASE-TK kit (cat #62TK0PEC, Cisbio).[17] SPP10 underwent screening at progressively diluted concentrations in the presence of 1% dimethyl sulfoxide (DMSO), preceded by a 5 min preincubation of the kinase and compounds. […] Following a 1 h plate incubation, readings were taken on a microplate reader using standard HTRF settings. IC50 values were determined using GraphPad Prism 5.0 software. Each reaction was carried out in duplicate, and a minimum of three independent determinations were performed. The data were analyzed using GraphPad Prism.

[12] = target: EGFRT790M (Homo sapiens, UniProt P00533, T790M); experiment: EGFRT790M kinase inhibitory assay (HTRF); assay type: biochemical; settings: read-out: EGFRT790M kinase inhibition IC50
Description: The inhibitory effects of the target compounds on various EGFR kinases were evaluated through a well-established homogeneous time-resolved fluorescence (HTRF) method-based assay, utilizing the HTRF KinEASE-TK kit (cat #62TK0PEC, Cisbio).[17] SPP10 underwent screening at progressively diluted concentrations in the presence of 1% dimethyl sulfoxide (DMSO), preceded by a 5 min preincubation of the kinase and compounds. Initiation of all reactions occurred by adding ATP and TK-substrate-biotin, followed by a 60 min incubation at room temperature and subsequent quenching with a stop buffer containing 62.5 nM Strep-XL665 and TK antibody (Ab)-Cryptate. Following a 1 h plate incubation, readings were taken on a microplate reader using standard HTRF settings. IC50 values were determined using GraphPad Prism 5.0 software. Each reaction was carried out in duplicate, and a minimum of three independent determinations were performed. The data were analyzed using GraphPad Prism.

[13] = tested on: EGFRWT; experiment: Western blot, EGFR protein; assay type: cell-based, human; settings: 72 h, MCF-7, H69AR and PC-3 cells
Description: as §4

Chain of EGFRT790M (P00533 25-1210 T790M): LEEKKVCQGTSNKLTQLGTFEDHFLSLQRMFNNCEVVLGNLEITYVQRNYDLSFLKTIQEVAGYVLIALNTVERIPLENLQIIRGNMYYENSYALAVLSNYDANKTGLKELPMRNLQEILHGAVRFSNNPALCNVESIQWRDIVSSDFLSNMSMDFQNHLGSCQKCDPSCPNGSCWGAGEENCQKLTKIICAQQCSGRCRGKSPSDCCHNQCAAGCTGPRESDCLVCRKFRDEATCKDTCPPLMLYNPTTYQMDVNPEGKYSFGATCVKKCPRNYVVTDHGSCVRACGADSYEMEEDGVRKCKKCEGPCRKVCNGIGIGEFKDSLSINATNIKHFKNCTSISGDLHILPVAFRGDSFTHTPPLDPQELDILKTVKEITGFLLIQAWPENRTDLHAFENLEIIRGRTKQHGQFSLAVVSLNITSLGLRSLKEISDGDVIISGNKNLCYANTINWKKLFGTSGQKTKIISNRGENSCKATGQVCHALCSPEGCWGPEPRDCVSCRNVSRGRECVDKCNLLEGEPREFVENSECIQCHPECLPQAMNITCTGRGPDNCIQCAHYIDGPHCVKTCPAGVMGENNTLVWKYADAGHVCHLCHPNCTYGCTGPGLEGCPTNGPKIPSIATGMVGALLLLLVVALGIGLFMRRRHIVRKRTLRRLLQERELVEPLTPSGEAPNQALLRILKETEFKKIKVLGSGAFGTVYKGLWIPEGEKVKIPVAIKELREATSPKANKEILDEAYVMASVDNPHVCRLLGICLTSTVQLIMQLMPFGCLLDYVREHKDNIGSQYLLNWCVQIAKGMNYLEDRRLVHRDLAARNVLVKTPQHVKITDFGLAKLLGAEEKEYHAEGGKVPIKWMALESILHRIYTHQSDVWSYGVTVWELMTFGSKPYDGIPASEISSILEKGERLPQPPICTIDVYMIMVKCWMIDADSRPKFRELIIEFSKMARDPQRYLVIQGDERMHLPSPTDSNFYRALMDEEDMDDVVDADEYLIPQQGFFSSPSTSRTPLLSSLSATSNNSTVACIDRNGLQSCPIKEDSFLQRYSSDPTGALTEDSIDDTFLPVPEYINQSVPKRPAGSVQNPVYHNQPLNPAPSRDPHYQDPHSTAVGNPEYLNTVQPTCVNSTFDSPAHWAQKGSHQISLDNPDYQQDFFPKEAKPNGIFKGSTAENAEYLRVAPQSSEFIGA
Chain of EGFR (P00533 25-1210): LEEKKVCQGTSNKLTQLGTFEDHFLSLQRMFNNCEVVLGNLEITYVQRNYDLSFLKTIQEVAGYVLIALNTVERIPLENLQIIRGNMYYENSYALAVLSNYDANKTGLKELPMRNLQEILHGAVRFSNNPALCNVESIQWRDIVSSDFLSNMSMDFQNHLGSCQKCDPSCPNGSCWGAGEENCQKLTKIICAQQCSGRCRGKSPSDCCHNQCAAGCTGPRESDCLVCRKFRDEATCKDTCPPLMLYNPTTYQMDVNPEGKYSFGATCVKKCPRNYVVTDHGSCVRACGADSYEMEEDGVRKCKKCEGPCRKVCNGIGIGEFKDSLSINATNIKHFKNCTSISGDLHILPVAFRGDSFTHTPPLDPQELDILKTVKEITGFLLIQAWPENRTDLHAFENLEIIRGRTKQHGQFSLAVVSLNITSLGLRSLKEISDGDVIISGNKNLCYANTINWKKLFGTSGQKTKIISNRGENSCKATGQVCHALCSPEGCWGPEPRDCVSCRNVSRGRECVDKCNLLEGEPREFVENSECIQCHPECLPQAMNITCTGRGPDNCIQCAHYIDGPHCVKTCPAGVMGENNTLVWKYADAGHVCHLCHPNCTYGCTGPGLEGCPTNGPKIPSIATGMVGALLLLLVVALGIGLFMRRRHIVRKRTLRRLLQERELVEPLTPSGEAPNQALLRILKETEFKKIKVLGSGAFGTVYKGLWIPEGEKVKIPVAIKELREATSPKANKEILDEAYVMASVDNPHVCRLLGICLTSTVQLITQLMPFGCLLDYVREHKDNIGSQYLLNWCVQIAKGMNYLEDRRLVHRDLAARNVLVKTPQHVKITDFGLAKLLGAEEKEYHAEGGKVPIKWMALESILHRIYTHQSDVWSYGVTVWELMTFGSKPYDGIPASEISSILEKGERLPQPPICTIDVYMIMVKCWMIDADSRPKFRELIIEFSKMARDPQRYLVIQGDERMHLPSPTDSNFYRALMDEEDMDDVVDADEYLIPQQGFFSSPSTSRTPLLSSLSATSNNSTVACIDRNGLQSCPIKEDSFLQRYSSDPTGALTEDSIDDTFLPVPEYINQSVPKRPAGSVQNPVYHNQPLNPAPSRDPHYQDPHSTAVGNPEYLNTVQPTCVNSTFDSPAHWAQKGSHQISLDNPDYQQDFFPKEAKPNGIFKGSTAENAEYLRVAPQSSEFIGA

With `c1ccc(-c2nnc(-c3ccccc3)c3c2C(c2ccsc2)=NC32CCCCC2)cc1` [SPP10] the IC50 [1] was 26.8 ± 0.4 µM, the IC50 ([2]; Homo sapiens, MCF7, XTT, 72 h) was 2.31 ± 0.3 µM and the “selectivity index (SI) MCF-7” value ([2]; versus HEK-293) was 11.6. The IC50 ([3]; Homo sapiens, H69AR, XTT, 72 h) was 3.16 ± 0.8 µM, the “selectivity index (SI) H69AR” value ([3]; versus HEK-293) was 8.48 and the IC50 ([4]; Homo sapiens, XTT, 72 h) was 4.2 ± 0.2 µM. For the same molecule, the “selectivity index (SI) PC-3” value ([4]; versus HEK-293) was 6.38, the “percentage of early apoptotic cells” value [5] was 28.7% and the “percentage of late apoptotic cells” value [5] was 59.3%. The “percentage of early apoptotic cells” value [6] was 25.6%, the “percentage of late apoptotic cells” value [6] was 61.2% and the “percentage of early apoptotic cells” value [7] was 21.8%. The “percentage of late apoptotic cells” value [7] was 64.9%, the “Bcl-2 protein level inhibited by” value ([8]; H69AR, IC50 of SPP10, 72 h) was 2.6 fold and the “Bcl-2 protein level inhibited by” value ([8]; MCF-7, IC50 of SPP10, 72 h) was 2.3 fold. For the same molecule, the “Bcl-2 protein level inhibited by” value ([8]; PC-3, IC50 of SPP10, 72 h) was 3.2 fold, the “Bax protein level induced by” value ([9]; H69AR, IC50 of SPP10, 72 h) was 4.1 fold and the “Bax protein level induced by” value ([9]; MCF-7, IC50 of SPP10, 72 h) was 3.4 fold. The “Bax protein level induced by” value ([9]; PC-3, IC50 of SPP10, 72 h) was 5.2 fold, the “Cytochrome c level induced by” value ([10]; H69AR, IC50 of SPP10, 72 h) was 3.6 fold and the “Cytochrome c level induced by” value ([10]; MCF-7, IC50 of SPP10, 72 h) was 3.8 fold. For the same molecule, the “Cytochrome c level induced by” value ([10]; PC-3, IC50 of SPP10, 72 h) was 4.4 fold, the IC50 ([11]; in H69AR cells) was 0.2 µM and the IC50 ([11]; in MCF-7 cells) was 0.4 ± 0.12 µM. It also gave an IC50 ([11]; in PC-3 cells) of 0.42 ± 0.8 µM, an IC50 ([11]; span in cancer cells) of 0.2 to 0.42 µM and an IC50 ([12]; in H69AR cells) of 0.25 ± 0.7 µM. For the same molecule, the IC50 ([12]; in MCF-7 cells) was 0.37 ± 0.2 µM, the IC50 ([12]; in PC-3 cells) was 0.39 ± 0.2 µM and the “inhibition of EGFRWT protein (western blot)” value [13] was “concentration-dependent inhibition”.
